Source: PubChem BioAssay (NCI)
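Tested at 5 concentrations; 48 h exposure; 96-well plates; endpoints linearly interpolated, else capped at highest concentration. GI50 marks 50% less growth. TGI marks complete inhibition of growth.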 Where a SMILES comes first, the peptide text is derived from it. [ ]: non-standard residue; d: D form. The star is where a group is joined. Phe(4-NO2) = N[CH](Cc1ccc([N+](=O)[O-])cc1)C(=O)O; Boc = CC(C)(C)OC(=O)*; OBn = c1ccc(CO*)cc1

Legend:
Assay in all cases: NCI tumour cell line growth inhibition, 48 h
U251 CNS = test system: U251 CNS
SR leukemia = test system: SR leukemia
SK-MEL-5 melanoma = test system: SK-MEL-5 melanoma
HT29 colon = test system: HT29 colon
BT-549 breast = test system: BT-549 breast
HOP-62 NSCLC = test system: HOP-62 NSCLC
NCI-H522 lung = test system: NCI-H522 lung
A549 NSCLC = test system: A549 NSCLC
MDA-MB-231 breast = test system: MDA-MB-231 breast
HCC-2998 colon = test system: HCC-2998 colon

Compound | TGI (U251 CNS) [µM] | TGI (SR leukemia) [µM] | TGI (SK-MEL-5 melanoma) [µM] | TGI (HT29 colon) [µM] | TGI (BT-549 breast) [µM] | TGI (HOP-62 NSCLC) [µM] | TGI (NCI-H522 lung) [µM] | TGI (A549 NSCLC) [µM] | TGI (MDA-MB-231 breast) [µM] | TGI (HCC-2998 colon) [µM] | GI50 (BT-549 breast) [µM] | GI50 (MDA-MB-231 breast) [µM]
Cc1ccc([N+](=O)[O-])cc1S(=O)(=O)Nc1ccc(C2=NN(c3ccc([N+](=O)[O-])cc3[N+](=O)[O-])C(c3ccccc3)C2)cc1 (configuration not stated) | 25.3 | 90 | 25.1 | 37.6 | 33 | 33 | 25.9 | 96.6 | 33.4 |  |  | 
C=CC[C@H]1[C@@H](O[Si](C)(C)C(C)(C)C)[C@H](n2ccc(=O)[nH]c2=O)O[C@@H]1CO[Si](C)(C)C(C)(C)C | 4.44 | 5.95 | 3.18 | 2.96 | 7.67 | 4 | 3.93 | 5.8 | 5.4 | 3.74 |  | 
COC(=O)CCC(NC(=O)OC(C)(C)C)C(=O)NC(Cc1ccc([N+](=O)[O-])cc1)C(=O)NCC(=O)OCc1ccccc1 (configuration not stated) (Boc-Glu(OMe)-[Phe(4-NO2)]-Gly-OBn; configuration not given here) | > 100 | > 100 | > 100 | > 100 | 66.9 | > 77.6 | > 100 | > 100 | > 91.6 | > 100 |  | 
CC(=O)OC[C@H]1O[C@@H](O[C@H]2[C@H](OC(C)=O)C=CO[C@@H]2COC(C)=O)C(OC(C)=O)[C@H]2OC(C)(C)O[C@H]21 (some centres not stated) | > 100 | > 100 | > 100 | > 100 | > 100 | > 100 | 35.7 | > 100 | > 100 | > 100 |  | 
CC(=O)Oc1ccc(/C=C/C(=O)O[C@@H](C)[C@H](C)OC(=O)/C=C/c2ccc(OC(C)=O)c(OC(C)=O)c2)cc1OC(C)=O | > 100 | > 100 | 29.2 |  | 89.2 | 56.3 | 28.1 | > 100 | > 100 | 50.4 |  | 
Cc1ccc2c(=O)cc(-c3csc4ccccc34)[nH]c2n1 | 0.0783 | 0.142 | 1.05 | 0.0481 | 22.3 | 21.8 | < 0.01 | 19.5 | 0.0836 |  |  | 
CC(C)(CO)CNc1cc(=O)[nH]c(N)n1 | > 100 | > 100 | > 100 | > 100 | > 100 | > 100 | > 100 | > 100 | > 100 | > 100 |  | 
Cc1nc2ccc(S(=O)(=O)Nc3ccc(Cl)cc3)cc2c(=O)n1NC(=O)CNc1ccc(Cl)cc1 | > 100 | > 100 |  | > 100 | > 100 | > 100 | > 100 | > 100 | > 100 | > 100 |  | 
Oc1ccc(/C=C\c2nnc(/C=C\c3ccc(O)c(O)c3)s2)cc1O | 13.5 | 5.22 | 13.9 | > 75.8 | 40.6 | 21.8 | 3.29 | > 52.8 | 56.2 | 23.9 |  | 
Cn1ccnc1S/C(=C\C=C(C#N)C#N)c1ccc(Cl)cc1 | 6.85 | 0.367 | 3.59 | 16.2 | > 28.7 | 11.1 | 11.5 | 22.6 | 15 | 9.54 | 5.14 | 4.15
NCCC(N)C(=O)O (configuration not stated) | > 100 | > 100 | > 100 | > 100 | > 100 | > 100 | > 100 | > 100 | > 100 |  |  | 
